The test system of the assay is 5'-biotin NRAS-G4 (RNA, G4) UGUGGGAGGGGCGGGUCUGGG
As to the kind of experiment: SPR. The conditions noted are these: K+ 100 mM; 10 mM Tris pH 6.9, 0.005% Tween 20, 5% DMSO; Langmuir 1:1 fit.

What is called KD is a measure of binding affinity in units of concentration. For the compound `CN(C)c1ccc(Nc2c3ccc(NC(=O)CCN4CCCC4)cc3nc3cc(NC(=O)CCN4CCCC4)ccc23)cc1`, the KD came to 79 ± 1.2 nM.

For the origin of these results see publication PMC11623308 (2023).
